Assay results reported in ChEMBL document CHEMBL3507680, “University of Dundee, Gates Library screen for HepG2 cell viability”.

Test: Human HepG2 cell viability assay in 384 well format
Type: toxicity, cell-based
Set-up: dose 125 nL, time 70.5 hour; concentration not given beside the values
Conditions: HepG2 cells, read-out: Inhibition

Compound	cytotoxicity at 70.5 h [%]
O=c1c2ccccc2nc2n1C(CSc1ccc(Br)cc1)CN2 (stereo not given)	0.264
O=c1c2ccccc2nc2n1C(CSc1ccc(F)cc1)CN2 (stereo not given)	28.4
Cc1ccc(SCC2CNc3nc4ccccc4c(=O)n32)c(C)c1 (stereo not given)	20
CCOC(=O)Cn1ccc(O)c(Cc2ccc(Cl)cc2Cl)c1=O	0.692
O=c1c(Cc2ccccc2)c(O)ccn1Cc1ccco1	0.508
CN1CCC(c2cccc(NCc3ccncc3)n2)CC1	-2.85
COCCN1CCC1c1cc(N)nc(C)n1 (stereo not given)	-2.65
Cc1cc(C)n(C2CCN(S(=O)(=O)N3CCC(C)CC3)CC2)n1	-3.62
CNc1nc(C)c(C(=O)NCC(C)(C)N2CCCCC2)s1	-0.6
CCCn1nc(C)c(-c2cncn2CC2(N(C)C)CCC(C)CC2)c1C (stereo not given)	-5.71
CNC(=O)C1CN(c2ccnc(C)n2)CCN(C2CCOCC2)C1 (stereo not given)	-1.96
c1cnc(Nc2cc(CCC3CCNCC3)ccn2)cn1	5.45
CC(C)C(=O)N1CCCc2c(cnn2-c2ccccc2)C1	-5.24
Cc1cc2c(c(=O)n1CCC(=O)O)C=CC(C)(C)O2	-2.47
CNC(=O)C1(CCCc2ccccn2)CCN1Cc1coc(C)n1 (stereo not given)	14.6
Cc1ccc(CC2COCCN(Cc3ccccc3)C2)nc1 (stereo not given)	-2.48
CN1CCCC(Cc2cc(N(C)C)ncn2)C1 (stereo not given)	-5.24
CC(Cn1cc(Cl)cn1)C(=O)Nc1ccc(CN2CCCCCC2)cc1 (stereo not given)	18.9
COCC(=O)N1CCCCC1c1nc(C)c2c(n1)N(CC1CC1)C(=O)C2 (stereo not given)	-2.8
Cc1nc(N)ncc1C(=O)N1CCCC1(C)C(=O)N(C)C (stereo not given)	-3.98
CC(=O)Nc1ccc(CCC2(NC(=O)C3CC3)CCCCC2)cn1	-0.0205
Cc1cc2ccncc2n1CC1(O)CCN(C(=O)c2cccnc2)CC1	-0.954

Compound	cytotoxicity at 70.5 h [%]
Cc1ncc(-c2ccccn2)c(CCNC(=O)C2CCCC2)n1	14.1
Cc1ncc(-c2ccccn2)c(CCNC(=O)CCC2CCCO2)n1 (stereo not given)	3.67
CCn1cc(S(=O)(=O)N2CCCCCC2c2cc(C)no2)cn1 (stereo not given)	0.308
Cc1nc(C)n(CC(=O)N2CCCC(c3nc(C)n4c(C)csc34)C2)n1 (stereo not given)	0.595
Cc1csc2c(C3CCN(C(=O)Cn4cncn4)CC3)nc(C)n12	-2.36
CNC(=O)C1CN(c2cc(C)ncn2)CCN1Cc1ccccc1 (stereo not given)	21.6
CN(C)c1ncc(I)c(C2CCCN2S(C)(=O)=O)n1 (stereo not given)	44.4
Cc1cc(Cc2cccc(C(F)(F)F)c2)cc(C2CCCNC2)n1 (stereo not given)	2.41
Cc1ccc(CC(=O)N2CCOC(c3ncc(CN(C)C)[nH]3)C2)s1 (stereo not given)	-6.18
Cc1ccc(C(=O)N2CCOC(c3ncc(CN(C)C)[nH]3)C2)cc1F (stereo not given)	-3.52
Cc1ccccc1C(=O)N1CCOC(c2ncc(CN(C)C)[nH]2)C1 (stereo not given)	-6.83
COc1cccc(CN2CCC(Cc3cnc(CN(C)C)cn3)CC2)c1	22.5
CCN1C(=O)CC[C@@H]2N(C(=O)CCn3nccc3C)CCCC[C@@]21C	-6.96
CN1CCN(C(=O)c2ccccc2)CC(Cc2cc(N(C)C)ncn2)C1 (stereo not given)	-3.72
Cc1cccc(Cc2cc(C)nc(C3CCCNC3)c2)c1 (stereo not given)	2.77
O=C(c1ccc2[nH]nnc2c1)N1CC[C@H](O)[C@]2(CCCO2)C1	-4.29
CCNc1ncnc2c1CN(C1CCCNCC1)C(=O)CN2C (stereo not given)	1.19
CC(C)CC(=O)Nc1ccccc1Oc1ccsc1C(=O)O	-2.03
O=c1c(Cc2ccc(Cl)cc2Cl)c(O)ccn1CC1CC1	-5.97
CC(C)(C)C(=O)Nc1ccc(Oc2ccsc2C(=O)O)cc1	1.54
O=C(O)c1sccc1Oc1ccc(NC(=O)C2CC2)cc1	-0.448
CC(C)(C)OC(=O)N1CCN(c2nnc(Br)s2)CC1	18.7

Compound	cytotoxicity at 70.5 h [%]
CC(C)(C)OC(=O)N1CCCN(c2nnc(Br)s2)CC1	-4.55
CN(C)c1cc(C(F)(F)F)cc(-c2ccc(C(=O)O)cc2)n1	-6.98
O=C(O)c1cnc(OCC2CC2)c(Br)c1	-4.12
O=C(O)c1cc(Br)cnc1OCC1CC1	2.88
O=C(NC1CC1)c1cc(C(F)(F)F)cc(C(F)(F)F)n1	-9.57
OCc1cn(Cc2cccc(C(F)(F)F)c2)nn1	-9.88
COC(=O)c1c(C(F)(F)F)cnc(OC)c1Cl	-11.7
CC(O)c1cn(Cc2ccccc2)nn1 (stereo not given)	-6.51
COc1ccc(Cn2cc(C(C)O)nn2)cc1 (stereo not given)	20.2
OC1(CNc2cccc(F)c2)CCNCC1	-3.17
Cc1ccc(C(=O)CC(SC2CCCCC2)C(=O)O)cc1 (stereo not given)	-2.59
COC(=O)c1ccc(C)c(N2CCNC2=O)c1	-2.21
COC(=O)CN1CCC(C(F)(F)F)CC1	-2.55
O=C(CN1CCOCC1)Nc1cc(C(F)(F)F)ccc1-n1cccc1	-3.59
Cn1c(CN2CCCc3cc(F)cc(F)c32)cc(=O)n(C)c1=O	-4.68
Cc1ccc(F)c(S(=O)(=O)N2CCCC2c2ccncc2)c1 (stereo not given)	-1.25
CNC(=O)c1ccc(CN(C)C(=O)Nc2nnc(C(C)C)s2)cc1	2.68
Cc1ccc(S(=O)(=O)N2CCN(CCCO)CC2)s1	-2.4
COc1ccc(-n2cnc(Cl)c2CO)cc1	-2.44
COc1ccc(-c2nc(CCNCc3ccncc3)co2)cc1	1.89
Cn1cc(C2CCCN2C(=O)c2cnc(-c3ncccn3)s2)cn1 (stereo not given)	-1.78
N#CC(NC(=O)CCCOc1cccnc1)c1ccc(F)cc1F (stereo not given)	6.82

Compound	cytotoxicity at 70.5 h [%]
CN(C(=O)CSc1ncc[nH]1)C1CC1	-3.27
Cc1ccc2c(c1)N(C(=O)c1cc[nH]c(=O)c1)CC(C)O2 (stereo not given)	-1.21
CCN(CC1CC1)C(=O)NCc1nnc2n1CCC2	1.57
Cc1ccc2c(c1)N(C(=O)c1c[nH]c(C)cc1=O)CC(C)O2 (stereo not given)	28.6
Cc1ccc(F)cc1C(=O)N1CCOCC12CCCC2	-5.21
Cc1cc(C(=O)Nc2ccc3c(c2)N(C)CCN(C)C3)on1	-5.18
COc1c(CNCCc2c[nH]c3cc(F)ccc23)c(C(C)C)nn1C	4.03
CCc1ccc(C(=O)Nc2ccc3c(c2)N(C)CCN(C)C3)o1	-8.89
CCc1nnsc1C(=O)NCc1nnc2n1CCCCC2	-3.94
CCc1nnsc1C(=O)NCc1nnc2n1CCC2	-2.79
Cc1cc(C)n(Cc2ccc(C(=O)N3CCOCC3(C)C)cc2)n1	12.1
CCC(=O)Nc1ccc(N2CCC(OC)CC2)c(C(F)(F)F)c1	-4.77
Brc1cccc(-c2noc(C3COCCO3)n2)c1 (stereo not given)	-9.75
CNC[C@H]1CC[C@H](c2cc(CN(C)S(=O)(=O)N(C)C)n(C)n2)CC1	-3.44
CCCn1nc(C)c(-c2cncn2CCN(C)C2CCCC2)c1C	-4.61
Cc1ncccc1-c1cc2cccnc2n1CCCNC(=O)C(C)(C)C	2.29
CCC(=O)NCCCn1c(-c2cccnc2C)cc2cccnc21	-1.81
CC(C)c1nc(-c2ccnc(N3CCNCC3)n2)no1	-7.09
Cc1nc(-c2ccnc(N3CCNCC3)n2)no1	-1.44
